From patent publication US8623338B2, “Methionine-derived peptidomimetics and their use in the protection of mitochondria of cutaneous cells” (Exsymol S.A.M., priority 2010, dated 2014)
Several values for one entry are separate records, joined by “and”; a condition that tells them apart may be missing. Identical values can stand only once. Like-named read-outs stand apart in the source and are kept apart here. Marks after values point to notes of the source that are not given here.

Tests used:
[1] = reference antioxidants, literature footnotes; cited from earlier work
[2] = system: cell line of fibroblasts called V79; assay: Restoration of cellular ATP levels in V79 fibroblasts exposed to H2O2 stress (luminometry, ATPlite 1step); assay type: cell-based, hamster; conditions: V79 cells
Experimental: Test 1: Evidence of the Ability of the Methionine-derived Peptidomimetics to Restore the Cellular ATP Levels on Cells Exposed to a Stress (H2O2):
The experimental study has been carried out on a cell line of fibroblasts called V79, and seeded in a 96 well plate at the rate of 5000 cells per well in 100 μl of culture medium (containing 10% foetal calf serum). This one is then replaced in each of the well by 100 μl of medium containing some peptidomimetics according to the invention, at the concentration of 7.5 mM or 10 mM. After 2 hours of incubation, the medium is removed from all wells. Then the cells are submitted to a stress with the addition of a medium containing 50 μl of hydrogen peroxide H2O2 (4 ppm). After 8 additional hours of incubation, the ATP average concentration is measured by luminometry in presence of luciferin (“ATPlite lstep” kit) and through a standard curve prepared from highly purified ATP.
The results, expressed as the average values obtained from three independent experiments, are presented in the hereafter table 1, in comparison with a control.

[3] = Percutaneous absorption on human skin explants (Frantz-type cells, OECD guideline 428); assay type: in vitro ADME; conditions: 1% solution, 24 hours contact
Excerpt: Test 2: Percutaneous Absorption Study of the Methionine-derived Peptidomimetics on Human Skin Explants: The values of permeability coefficient (Kp) were obtained from a previously frozen abdominal […] human skin, in accordance with protocol described in the OECD guidelines n° 428 on cutaneous absorption studies. Experimentally, the skin explants were placed on Frantz-type cells in passive diffusion, piloted by the “MicroettePlus Hanson Research” system. The tested products are applied in a non-occlusive way. After that skin was laid on the cells, 500 μl of peptidomimetic according to the invention (1% solution) were placed in each of the cells and for a total contact time of 24 hours. At the end of these ones, the remaining product is sampled and the skin surface rinsed for extraction and for measure of the absorbed quantity, then for the determination of the permeability coefficient expressed under logarithmic type (Log Kp).

[4] = Hydroxyl radical scavenging speed constant (deoxyribose / thiobarbituric acid method); conditions: pH 7.4, 37° C., one hour
Excerpt: Test 5: Evidence of the Antioxidant Effect of the N-Acety-(DL)-Methionyl-4-(Methylthio)Propylamine and N-Propionyl-(DL)-Methionyl-4-(Methylthio)Propylamine on the Hydroxyl Radical
The method, described by Rehman A. and coll. (British J. Pharmacol. (1997), vol. 122, pp. 1702-1706), is used for the determination of the scavenging speed constant of the hydroxyl radical [Ks (OH°)], the peptidomimetic according to the invention being compared to two reference antioxidants, mannitol and ascorbic acid (vitamin C).
Experimentally, the tested substance is dissolved in a buffered medium of pH 7.4 to which is added a OH° generating system (ascorbate/iron/EDTA) in presence of deoxyribose. After one hour of incubation at 37° C., the reaction is stopped with the help of trichloroacetic acid. After colorimetric visualization with thiobarbituric acid, the absorbance is measured at 532 nm for different concentrations, then the relative Ks (OH°) is calculated for each of the substances.

[5] = system: O2°− superoxide anion present in mitochondria of V79 cells; assay: Mitochondrial oxidative stress in V79 cells under H2O2 stress (MitoSOX Red, flux cytometry); assay type: cell-based, hamster; conditions: for % of positive cells to MitoSOX: V79 cells
Excerpt: (§1) Test 3: Evidence of the Protective Effect of the N-Acety-(DL)-Methionyl-4-(Methylthio)Propylamine Compound on the Mitochondrial Oxidative Stress and on the Mitochondrial Biogenesis
(§2) Principles: measures of the mitochondrial intracellular oxidative stress and detection of the mitochondrial biogenesis were achieved by flux cytometry with the following fluorophore markers: • the “MitoSOX™ Red” red fluorescent probe below-designed “MitoSOX” (detection to λ=580 nm; supplier: Invitrogen) allows to specifically detect the O2°^− superoxide anion present in mitochondria (due to its strong affinity for mitochondria), • the “MitoTracker® Green FM” green fluorescent probe below-designed “Mitogreen” (detection to λ=516 nm; supplier: Invitrogen) allows to quantify the mitochondrial mass (or related number of mitochondria per cell).
(§3) Experimentally, tests were achieved on a fibroblastic line of hamster “V79”, maintained by lining out in a “EMEM” complete culture medium (with 10% foetal calf serum) in humid atmosphere at 37° C. and 5% CO2. The V79 cells are seeded then incubated 24 hours in […] at the rate of 2.5·10^5 cells per well in 3 ml of the same culture medium, then exposed 1h30 to a stress with the addition of a medium containing hydrogen peroxide H2O2 (15 ppm).
(§4) After trypsination, the cells are incubated at 37° C. for 15 minutes in 1 ml of “EMEM” complete culture medium and containing the above-mentioned markers “MitoSOX” (at the final concentration of 5 μM) and “Mitogreen” (at the final concentration of 200 nM), for respective detection: • of the mitochondrial oxidative stress (expressed in % of positive cells) • of the mitochondrial mass per cell (expressed in % of MFI (“Mean Fluorescence Intensity”) in relation to the control).
(§5) The results, expressed as the average values obtained from four independent experiments, are presented in the hereafter tables 3a and 3b, in comparison with those obtained for the N-acetyl-cysteine chosen as a reference protective agent at the concentration of 5 mM.

[6] = system: mitochondrial mass of V79 cells; assay: Mitochondrial mass / biogenesis in V79 cells under H2O2 stress (MitoTracker Green FM, flux cytometry); assay type: cell-based, hamster; conditions: Mitogreen
Excerpt: as §1, §2, §3, §4, §5

[7] = Whitening test of pyrogallol red by peroxynitrite ions; conditions: inhibition of pyrogallol red (50 μM) oxidation by ONOO− (25 μM), pH 7.0, 5 minutes
Excerpt: Test 6: Evidence of the Antioxidant Effect of the […])Propylamine Compound on Peroxynitrite Ions The method so-called “whitening test of the pyrogallol red (PR)”, described by Nath V. B. and coll.

[8] = literature value (Mitragotri 2003); cited from earlier work

OC[C@@H](O)[C@@H](O)[C@H](O)[C@H](O)CO [mannitol]
Ks(OH°) [1]: 1.6 10^9 · M^−1 · s^−1 and 1.9 10^9 · M^−1 · s^−1

CCC(=O)NC(CCSC)C(=O)NCCCSC (stereo not drawn) [N-propionyl-(DL)-methionyl-4-(methylthio)propylamine]
ATP ([2]; compound 10 mM + H2O2 (4 ppm), 8 h): 449 nM
ATP ([2]; compound 10 mM, no H2O2): 528 nM
Kp [3]: 9.7e-05 cm/h
Ks(OH°) [4]: 5.7 10^9 · M^−1 · s^−1

CSCCCNC(=O)C(CCSC)NC(C)=O (stereo not drawn) [N-acetyl-(DL)-methionyl-4-(methylthio)propylamine]
ATP ([2]; compound 7.5 mM + H2O2 (4 ppm), 8 h): 483 nM
ATP ([2]; compound 7.5 mM, no H2O2): 591 nM
Kp [3]: 0.000109 cm/h
effect on intramitochondrial stress (MitoSOX and Mitogreen) ([5]; V79 cells + H2O2, in words, both tables 3a and 3b): ability to reduce the effect of intramitochondrial stress
% of positive cells to MitoSOX ([5]; 7.5 mM + H2O2 (15 ppm, 1h30)): 40.3%
MFI (% control) ([6]; 7.5 mM + H2O2 (15 ppm, 1h30)): 123.5 % control
MFI (% control) ([6]; 10 mM + H2O2 (15 ppm, 1h30)): 127.5 % control
Ks(OH°) [4]: 6.1 10^9 · M^−1 · s^−1
IC50 [7]: 1010 µM

Cn1c(=O)c2c(ncn2C)n(C)c1=O [caffeine]
Kp [8]: 1 · 10^−4** cm · h^−1

Cc1c(C)c2c(c(C)c1O)CCC(C)(C(=O)O)O2 (stereo not shown) [Trolox, carboxylic 2-(6-hydroxy-2,5,7,8-tetramethylchromane) acid, reference compound]
IC50 [7]: 83 µM

CC(=O)N[C@@H](CS)C(=O)O [N-acetyl-cysteine, reference compound]
% of positive cells to MitoSOX ([5]; 5 ppm + H2O2 (15 ppm, 1h30)): 15.2%
MFI (% control) ([6]; 5 ppm + H2O2 (15 ppm, 1h30)): 74.4 % control

O=C1O[C@H]([C@@H](O)CO)C(O)=C1O [ascorbic acid]
Ks(OH°) [1]: 10.1** 10^9 · M^−1 · s^−1
